# Measured values taken from PMC8709211, “Improving Membrane Activity and Cargo Delivery Efficacy of a Cell-Penetrating Peptide by Loading with Carboranes” (Pharmaceutics, 2021).
# Key:
# [1] = Circular dichroism spectroscopy (alpha-helical content, R-value); assay type: physicochemical; details: for % of alpha helix, 50% TFE / % of alpha helix, Phosphate Buffer: CD, calculated per ref 31; for % of alpha helix, 50% TFE: 20 µM peptide in 10 mM phosphate buffer (pH 7.0) with 50% TFE (v/v); for R-value, 50% TFE: 20 µM peptide in 10 mM phosphate buffer (pH 7.0) with 50% TFE
# Experimental: Conjugates were dissolved in 10 mM phosphate buffer (pH 7.0), either alone or supplemented with 50% TFE (v/v), to a final concentration of 20 µM. CD spectra of all conjugates were recorded from 180–260 nm (0.5 nm intervals) on a J-715 spectropolarimeter (JASCO, Pfungstadt, Germany) in an N2 atmosphere.
# To find out more, we performed CD spectroscopy for all peptides solved either in phosphate buffer or in phosphate buffer supplemented with trifluoroethanol (TFE), respectively. All conjugates and sC18 adopted an alpha-helix, when present in phosphate buffer with TFE (Figure S20). On the other hand, when CB-conjugates were solved in phosphate buffer only (Figure 1C), some of them directly formed distinct secondary structures. […] Taking this observation into account, we concluded that the number of CB moieties actually promoted the formation of alpha-helical structures. This effect might be further explained by the helical wheel projection of each conjugate showing that the hydrophobic face of the peptide was clearly enlarged when three or more CB units were attached (see Figure S21). […]
# [2] = CF-leakage assay, negatively charged LUVs; details: 1 µM peptide, 25 °C, 90 min; fluorescence, normalized to Triton x-100; duplicate, n = 2
# Experimental: (§1) Large unilamellar vesicles (LUVs) were prepared by dissolving different lipids in CHCl3, to reach the desired compositions (lipids were purchased from Avanti Polar Lipids, Inc., Alabaster, AL, USA). To remove the solvent, the mixture was placed into a round-bottomed flask on ice and the solvent was evaporated under reduced pressure for 20 min at 40 °C and afterwards under vacuum for another 5 min. The dried lipid film was then hydrated with HKS buffer (25 mM HEPES, 150 mM KCl, pH 7.4, 10% sucrose (w/v)), supplemented with 100 mM 5(6)-carboxyfluorescein (CF), and homogenized for 5 min at 45 °C to form liposomes (final concentration: 8 mM). The resulting multilamellar vesicle dispersion underwent 10 freeze/thawing cycles and was passed 21 times through a mini extruder (0.4 µm polycarbonate treck-etch membrane; Avanti Polar Lipids, Inc., Alabaster, AL, USA). External CF was removed by size exclusion chromatography (PD10 column, GE Healthcare, Chicago, IL, USA). Peptides were added to the LUVs and the CF release was monitored by measuring the increased fluorescence intensity on a plate reader (Biotek, Winooski, VT, USA). […]
# (§2) Our results thus far inspired us to investigate how the novel CB-conjugates would perform in a lipid environment. […] Both lipid systems were additionally loaded with CF in order to monitor membrane leakage via fluorescence dye outflow.
# HeLa cells [3] = experiment: Transfection with mCherry plasmid; assay type: cell-based; details: peptide:plasmid 3:1 (250 ng plasmid), 1 µM peptide, 2 h, inspected 72 h after transfection, fluorescence microscopy
# Experimental: HeLa cells were seeded into 8-well plates (ibidi, Gräfelfing, Germany, 8000 cells per well, respectively) and grown to 30–40% confluency. Peptides and mCherry plasmid were co-incubated for 1 h at 37 °C at a ratio of 3:1 in serum-free medium (mCherry plasmid: 250 ng). Afterwards, the medium was removed, and the solution was added to the cells. Additional serum-free medium was added to ensure a final peptide concentration of 1 µM. Cells were incubated for 2 h with the peptides and peptide/plasmid solution at 37 °C, respectively. As a positive control, Lipofectamine 2000 (Invitrogen, Thermo Scientific, Waltham, MA, USA) was used and as a negative control, cells were treated with plasmid only. Afterwards, a washout was performed, and cells were washed once with 150 µL of serum-free medium. In total, 300 µL of medium with serum were added and cells were grown for 72 h at 37 °C. Ten minutes prior to microscopic analysis, 0.6 µL of Hoechst33342 were added. Then, cells were washed twice with 150 µL of serum-free medium. In total, 300 µL of serum-supplemented medium were added and cells analyzed using a BZ-X800E microscope (Keyence, Osaka, Japan).
# HeLa cells [4] = experiment: Cellular uptake by flow cytometry; assay type: cell-based; details: 1 µM CF-labeled peptide, serum-free medium, 37 °C; for Cellular uptake into HeLa cells, 30 min: triplicate, n = 3
# Experimental: HeLa cells were seeded onto 24-well plates (Sarstedt, Nümbrecht, Germany, 100,000 cells per well, respectively). After reaching 80–90% confluency, medium was removed, and cells were incubated with 1 µM CF-labeled peptide solution in serum-free medium for either 30 min or 2 h at 37 °C. The peptide solution was removed, cells were washed twice with PBS, and trypsinized for 5 min. Detached cells were resuspended in full medium (phenol red free) and afterwards analyzed using a guava easycyte HT flow cytometer (Merck, Darmstadt, Germany).
# [5] = CF-leakage assay, zwitterionic LUVs; details: 1 µM peptide, 25 °C, 90 min; fluorescence, normalized to Triton x-100; duplicate, n = 2
# Experimental: as §1, §2
# HeLa cells [6] = experiment: Proliferation assay, co-incubation with Daunorubicin; assay type: cell-based; details: 2 h, washout, 72 h growth, resazurin; for Effect on cytotoxicity of Dau (co-incubation): 1 µM peptide with 100 nM or 1 µM Daunorubicin
# Experimental: In total, 3000 HeLa cells per well were seeded onto 96-well plates (Sarstedt, Nümbrecht, Germany). When a confluency of 30–40% was reached, medium was removed and cells were incubated with peptides and Daunorubicin at different concentrations (1 µM peptide concentration and 100 nM or 1 µM Daunorubicin in serum-free medium) for 2 h at 37 °C. Afterwards, a washout was performed, and cells were washed once with 100 µL of serum-free medium. Then, 200 µL of medium with serum were added and cells were grown for 72 h at 37 °C. As a positive control, cells were treated with 70% EtOH for 10 min. Afterwards, cells were covered with 10% (v/v) resazurin (Sigma-Aldrich, Merck group: Darmstadt, Germany) in serum-free medium for 1.5 h at 37 °C. The cell viability of treated cells was determined relative to that of untreated cells by measurement of the resorufin product at 595 nm (λex = 550 nm) on a Tecan infinite M200 plate reader (Tecan Group AG, Männedorf, Switzerland). Viability was calculated from the fluorescence values of treated cells in relation to untreated cells.
# [7] = Critical micelle concentration (CMC) determination by UV-VIS; assay type: physicochemical; details: peptide in water, 1–200 µM; UV absorbance at 255 nm plotted against logarithm of peptide concentration, intersection point of two lines
# Experimental: Peptide conjugates were dissolved in water and different concentrations (1–200 µM) were prepared. UV-VIS spectra ranging from 200–700 nm were recorded using a 1 cm path length quartz cuvette in a Spectroquant Pharo 300 photometer (Merck, Darmstadt, Germany). The absorbance at 255 nm was plotted against the logarithm of the peptide concentration. The intersection point of two lines was determined as CMC.
# Since this effect was obviously dependent on the hydrophobic nature of the conjugates, we were then interested in whether they would also self-assemble and form nanostructures, such as micelles or fibrils. An easy to apply and fast method makes use of changes in spectroscopic properties associated with micelle formation. For this, one measures the UV absorbance at a specific wavelength as a function of the concentration. Because aggregates like micelles and free molecule species contribute to a different extent to the absorbed UV light, an abrupt change of the slope occurs above a certain point. The corresponding concentration is defined as the critical micelle concentration (CMC). We measured the UV-VIS spectra of all CB-sC18 conjugates and observed for all an additional concentration-dependent maximum at 255 nm (Figure 1A,B and Table 2), whereas this maximum was not detected for meta-carborane-1-carboxylic acid (Figure S14) or sC18 alone (Figure S15).
# Thus, we hypothesized this maximum as evidence for a possible self-assembly, and by plotting the absorbance at 255 nm against the logarithm of the peptide concentration, we assigned the intersection point as CMC.
# HeLa cells [8] = experiment: Cell viability assay (resazurin); assay type: cell-based; details: 37 °C, serum-free medium, 125 nM–100 µM, relative to untreated cells
# Experimental: In total, 17.000 HeLa cells per well were seeded onto 96-well plates (Sarstedt, Nümbrecht, Germany). After confluency of 80–90% was reached, the growth medium was removed, and cells were incubated with 100 µL of peptide solution of different concentrations (125 nM–100 μM in serum-free medium) for 24 h at 37 °C. For a positive control, cells were treated with 70% EtOH for 10 min. Cells were washed with serum-free medium and incubated with 10% (v/v) resazurin (Sigma-Aldrich, Merck group: Darmstadt, Germany) in serum-free medium for 1.5 h at 37 °C. Cell viability was determined by measurement of the resorufin product at 595 nm (λex = 550 nm) on a Tecan infinite M200 plate reader (Tecan Group AG, Männedorf, Switzerland). Viability was calculated from the fluorescence values of treated cells in relation to untreated cells.
# human red blood cells = experiment: Hemolysis assay; assay type: cell-based; details: human RBCs 5% (v/v in PBS), 37 °C, up to 25 µM peptide, absorption at 560 nm, normalized to Triton-x-100 control, triplicate, n = 2
# Experimental: Human red blood cells were washed five times with PBS (4 °C, 3000× g, 5 min) and diluted to 5% (v/v in PBS). In total, 100 µL of this solution were transferred into a fresh 96-well plate. In total, 50 µL of peptide solution were added and gently resuspended. Red blood cells were incubated for either 1 or 24 h at 37 °C and 5% CO2, respectively. In total, 50 µL of 10% Triton-x-100 were added 10 min prior to the end of the incubation time and served as a positive control. After incubation, cells were centrifuged (r.t., 2500× g, 3 min). The supernatant was carefully transferred into a fresh 96-well plate and the absorption at 560 nm was measured on a Tecan infinite M200 plate reader (Tecan Group AG, Männedorf, Switzerland). The measured absorption referred to the hemoglobin concentration.
# Next, we incubated human red blood cells (RBCs) with different concentrations of CB-sC18 conjugates at 37 °C for 1 or 24 h, respectively. Since their cell membranes are mainly composed of neutral lipids, RBCs serve as an excellent biological model for the lytic activity of a peptide. […] For sC18, this agreed with the detected low activity when in contact with zwitterionic LUVs. […] The same activity profile was observed when incubating peptide conjugates with RBCs for only one hour (Figure S30), whereas the effects started at concentrations higher than 5 µM. […]
# [9] = 20 µM peptide in 10 mM phosphate buffer (pH 7.0)
# [10] = ratio between the molar ellipticity values at 222 and 208 nm
Substance,"% of alpha helix, 50% TFE [1] [%]","% of alpha helix, Phosphate Buffer [1, 9] [%]","R-value, Phosphate Buffer ([1]; ratio between the molar ellipticity values at 222 and 208 nm, 20 µM peptide in 10 mM phosphate buffer (pH 7.0))","R-value, 50% TFE [1, 10]",CF release (leakage) from negatively charged LUVs [2],mCherry pDNA transfection (red fluorescent signal) (HeLa cells [3]),"Cellular uptake into HeLa cells, 30 min (HeLa cells [4])","Cellular uptake into HeLa cells, 2 h (HeLa cells [4]; 2 h)",CF release (leakage) from zwitterionic LUVs [5],Effect on daunorubicin activity at 100 nM Dau (HeLa cells [6]; 1 µM peptide with 100 nM Dau),Effect on cytotoxicity of Dau (co-incubation) (HeLa cells [6]),CMC [7] [µM],"Cytotoxicity towards HeLa cells, 24 h (HeLa cells [8])","Hemolytic activity towards RBCs, 24 h (human red blood cells)"
"KKKK-GLRKRLRKFRNKIKEK [CB4-sC18, sC18 conjugate bearing four meta-carborane clusters]",56.30,21.68,0.73,0.98,highest leakage rate,strong red intracellular signals,highest,internalized the most,highest leakage rate towards both tested model systems,slightly increased,did not alter the cytotoxicity of Dau,43.45 ± 1.15,–,–
"K-GLRKRLRKFRNKIKEK [CB1-sC18, sC18 conjugate bearing one meta-carborane (CB) cluster]",50.68,5.02,–,0.85,–,only a weak red signal,internalized nearly to the same extent,–,–,–,did not alter the cytotoxicity of Dau,–,lowest cytotoxic effect,did not exhibit any effect
